Consider four compounds from patent US8110228B2, “Composition for treatment of menopause” (Bionovo, Inc., priority 2005, dated 2012).

The test system of data set [1] is U2OS-ERα cells. The data set is described as follows: Affymetrix U95Av2 gene expression microarray in U2OS-ERα cells. In kind it is cell-based, human. The settings on record: for number of genes Activated, α / number of genes Repressed, α: 10 nM E2, 1 μM raloxifene or 1 μM tamoxifen. Here is the method:
(§1) To identify genes regulated by ERα and/or ERβ, the U2OS-ERα and U2OS-ERβ cell lines were treated with doxycycline for 18 h in the absence or presence of 10 nM E2. Total RNA was used to prepare cRNA for hybridization with the human U95Av2 Affymetrix microarrays, which contain 12,600 known genes. Six sets of comparative expression data of untreated vs. each treated group were used to determine the genes regulated in ERα or ERβ cells.
(§2) Microarray data obtained from human Affymetrix U95Av2 gene chips from untreated vs. ligand-treated samples were analyzed using the Affymetrix Microarray Suite Version 5.0. Candidate genes displaying a statistically significant (p<0.05) increase or decrease signal changes relative to controls in at least three experiments were further selected by a ±0.8 signal log ratio mean cut-off. […] Fold-changes in the U2OS-ERα and U2OS-ERβ samples (in parentheses) were calculated relative to the untreated samples.

Data set [2] has as its system U2OS-ERβ cells. Nature of the data set: Affymetrix U95Av2 gene expression microarray in U2OS-ERβ cells. In kind it is cell-based, human. Here is the method:
as §1, §2

Data set [3] concerns U2OS-ERα and U2OS-ERβ cell lines. Nature of the data set: Affymetrix U95Av2 microarray, genes regulated across U2OS-ERα and U2OS-ERβ cell lines. The conditions noted are these: for number of genes Activated, α + β / number of genes Repressed, α + β: in both cell lines; for number of genes Activated, α + β / number of genes Repressed, α + β / total genes regulated in U2OSα and U2OSβ cell lines: 18 h; for total genes regulated in U2OSα and U2OSβ cell lines: p<0.05, 10 nM E2, 1 μM raloxifene or 1 μM tamoxifen. The data set is classed as cell-based, human. On the procedure: as §1, §2

The test system is the same in data set [4]. The data set is described as above. The data set is classed as cell-based, human. The conditions noted are these: for number of common genes with opposite expression patterns in ERα cells compared to ERβ cells (*): α + β, 1 μM SERM, 18 h.
In the next data set the target is T1, human ERβ (Homo sapiens, UniProt Q92731).
T1 construct: expressed in transfected cells; host or cells: U2OS osteosarcoma cells, transient transfection
T1 sequence (Q92731 whole entry): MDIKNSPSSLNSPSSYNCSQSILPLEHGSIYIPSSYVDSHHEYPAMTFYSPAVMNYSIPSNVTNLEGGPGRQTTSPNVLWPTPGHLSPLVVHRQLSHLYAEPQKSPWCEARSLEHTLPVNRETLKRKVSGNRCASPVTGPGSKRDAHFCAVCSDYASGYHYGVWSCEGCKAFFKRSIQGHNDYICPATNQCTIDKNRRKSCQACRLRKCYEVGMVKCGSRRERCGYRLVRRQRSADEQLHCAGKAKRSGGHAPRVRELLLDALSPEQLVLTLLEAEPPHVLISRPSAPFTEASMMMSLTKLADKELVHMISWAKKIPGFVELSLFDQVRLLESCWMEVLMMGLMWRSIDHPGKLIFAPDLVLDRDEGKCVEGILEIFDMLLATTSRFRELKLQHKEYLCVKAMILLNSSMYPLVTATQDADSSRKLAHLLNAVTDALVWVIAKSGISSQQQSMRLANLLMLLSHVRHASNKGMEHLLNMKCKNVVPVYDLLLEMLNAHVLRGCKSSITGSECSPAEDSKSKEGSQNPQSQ
Nature of the data set: ERE-tk-Luc reporter activation in U2OS osteosarcoma cells transfected with ERβ. The data set is classed as cell-based. The conditions noted are these: FIG. 1B.

Data set [5] deals with U2OS-ERα cells. The conditions noted are these: relative to untreated, 18 h.
The test system of data set [6] is U2OS-ERβ cells. The settings on record: relative to untreated, 18 h.
The test system of a further data set is breast cancer graft. Nature of the data set: breast cancer graft (xenograft) growth, control vs DES vs MF101. The data set is classed as in vivo. An excerpt: (§3) In a similar experiment, the effect of MF101 on breast cancer cells was compared to that of diethylstilbestrol (DES). […] FIGS. 3G and 3H show the effect of control, DES and MF101 on a breast cancer graft mass (FIG. 3G) and a uterine horn mass (FIG. 3H).

The subject of the next data set is uterine horn. The data set is described as follows: uterine horn mass, control vs DES vs MF101. The data set is classed as in vivo. The settings on record: FIG. 3H.
Excerpt: as §3

[7] abbreviates: only in U2OS-ERα cells, percent of all regulated genes.

Molecules are shown by their SMILES. Marks after values point to notes of the source that are not given here.

With `C[C@]12CC[C@@H]3c4ccc(O)cc4CC[C@H]3[C@@H]1CC[C@@H]2O` [estradiol], the “genes regulated only in the U2OS-ERα cells” value in the data set with U2OS-ERα cells [1] (10 nM E2) is given as 65 genes. In addition, in the data set on U2OS-ERα cells [1] (only in U2OS-ERα cells, 18 h), the “number of genes Activated, α” value stood at 33 and the “number of genes Repressed, α” value turned out to be 32. In addition, the “genes regulated only in the U2OS-ERβ cells” value with U2OS-ERβ cells [2] (10 nM E2) is listed as 125 genes. Further, in the data set with U2OS-ERβ cells [2] (only in U2OS-ERβ cells, 18 h), the “number of genes Activated, β” value was 87 and the “number of genes Repressed, β” value was 38. Moreover, in data set [3] (10 nM E2, 38 of the 228), the “percentage of genes regulated by both ERα and ERβ” value came out at 17%. The “genes regulated by both ERα and ERβ” value in data set [3] (10 nM E2, of the 228) is 38 genes. For the same compound, in data set [3], the “number of genes Activated, α + β” value came to 34; the “number of genes Repressed, α + β” value is listed as 4; the “total genes regulated in U2OSα and U2OSβ cell lines” value (“total genes regulated” for short) is “Estradiol: 228 genes regulated in U2OSα and U2OSβ cell lines”. Besides, in data set [3] (listed as E2), the “total genes regulated” value was 228 genes.
Turning to `CC/C(=C(\c1ccccc1)c1ccc(OCCN(C)C)cc1)c1ccccc1` [tamoxifen], in the data set with U2OS-ERα cells [1] (only in U2OS-ERα cells, 18 h), the “number of genes Activated, α” value amounted to 21 and the “number of genes Repressed, α” value came out at 38. Besides, in the data set on U2OS-ERβ cells [2] (only in U2OS-ERβ cells, 18 h), the “number of genes Activated, β” value is reported as 26 and the “number of genes Repressed, β” value is 129. In data set [3], the “number of genes Activated, α + β” value stood at 1; the “number of genes Repressed, α + β” value is 9; the “total genes regulated” value is “Tamoxifen: 236 genes regulated in U2OSα and U2OSβ cell lines”. Moreover, in [4], the “percentage of genes regulated by tamoxifen that were also regulated by raloxifene” value amounted to 27% and the “number of common genes with opposite expression patterns in ERα cells compared to ERβ cells (*)” value is given as 12*.
For the compound `O=C(c1ccc(OCCN2CCCCC2)cc1)c1c(-c2ccc(O)cc2)sc2cc(O)ccc12` [raloxifene], the “blockade of the activation of ERE-tk-Luc by MF101” value on human ERβ is “blocked”. Moreover, in the data set on U2OS-ERα cells [1] (U2OS-ERα, 18 h), the “Mean signal log ratio ± S.E., NKG2C (α)” value came to 2.40 ± 0.82. Further, in the data set with U2OS-ERα cells [1] (only in U2OS-ERα cells, 18 h), the “number of genes Activated, α” value turned out to be 10 and the “number of genes Repressed, α” value stood at 10. In addition, in the data set with U2OS-ERα cells [1] (setting [7]), the “relative percentage of genes Activated, α” value is given as “(5.3%)” and the “relative percentage of genes Repressed, α” value is “(5.3%)”. In the data set on U2OS-ERβ cells [2] (U2OS-ERβ, 18 h), the “Mean signal log ratio ± S.E., NKG2C (β)” value is listed as −5.20 ± 0.08. In the data set on U2OS-ERβ cells [2] (only in U2OS-ERβ cells), the “relative percentage of genes Activated, β” value is “(27.4%)” and the “relative percentage of genes Repressed, β” value is “(53.2%)”. In the data set on U2OS-ERβ cells [2] (only in U2OS-ERβ cells, 18 h), the “number of genes Activated, β” value is listed as 52 and the “number of genes Repressed, β” value was 101. Also, in [3], the “total genes regulated” value is “Raloxifene: 190 genes regulated in U2OSα and U2OSβ cell lines”. The “relative percentage of common genes with opposite expression patterns (*)” value in data set [3] (α + β) is listed as “(8.9%)”. In the data set with U2OS-ERα cells [5], the “Fold-change by real-time PCR, NKG2C (α)” value was determined as 7.54 fold. Moreover, the “Fold-change by real-time PCR, NKG2C (β)” value in the data set on U2OS-ERβ cells [6] turned out to be 0.36 fold. For the same compound, the “number of common genes with opposite expression patterns in ERα cells compared to ERβ cells (*)” value in data set [4] is 17*.
Turning to `CC/C(=C(/CC)c1ccc(O)cc1)c1ccc(O)cc1` [DES, diethylstilbestrol], the “growth of xenograft (breast cancer graft mass)” value in the data set with breast cancer graft (FIG. 3G) is listed as “substantial increase in xenograft mass”. The “proliferation of breast cancer cells” value in the data set on breast cancer graft (FIGS. 3D-3F) is given as “proliferation-stimulating effect”. Also, the “growth of uterine horn mass” value in the data set with uterine horn is recorded as “substantial increase in uterine horn growth”.
